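96-well plates; 48 h exposure; 5 concentrations. Endpoints by linear interpolation between flanking doses. Not reached: highest tested concentration assigned. GI50: concentration for 50% inhibition of growth.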 The source made the active and inactive calls. Cut-off read from the data, not from the text of the source: active = GI50 up to about 1.1 µM and inactive = higher.
How the values were obtained:
Experiment in all cases: DTP human tumour cell line panel, 48 h
[1] = system: HCT-15
[2] = system: SK-OV-3
[3] = system: M14
[4] = system: U-251
[5] = system: 786-0
[6] = system: HOP-18
[7] = system: A549
[8] = system: SK-MEL-28
[9] = system: HT-29
[10] = system: OVCAR-3
[11] = system: SW-620
[12] = system: XF498
[13] = system: SNB-75
[14] = system: HOP-92
[15] = system: ACHN
[16] = system: LXFL 529
[17] = system: DLD-1
[18] = system: CAKI-1
[19] = system: RXF 393
[20] = system: NCI-H460
[21] = system: UACC-257
[22] = system: HL-60
[23] = system: IGROV-1
[24] = system: CCRF-CEM
[25] = system: HCC 2998
[26] = system: SF-539
[27] = system: HOP-62
[28] = system: DMS-273
[29] = system: SNB-78
[30] = system: MOLT-4
[31] = system: SF-295
[32] = system: KM-20L2
[33] = system: EKVX
[34] = system: UACC-62
[35] = system: LOX IMVI
[36] = system: OVCAR-4
[37] = system: OVCAR-8
[38] = system: HCT-116
[39] = system: M19-MEL
[40] = system: TK-10
[41] = system: SK-MEL-5
[42] = system: K562
[43] = system: SN12C
[44] = system: RPMI-8226
[45] = system: SNB-19
[46] = system: NCI-H23
[47] = system: DMS-114
[48] = system: COLO 205
[49] = system: A498
[50] = system: SF-268
[51] = system: SK-MEL-2
[52] = system: SR
[53] = system: OVCAR-5
[54] = system: NCI-H226
[55] = system: KM12
[56] = system: RXF 631
[57] = system: Malme-3M
[58] = system: UO-31
[59] = system: NCI-H522

COc1cc(Cl)c2c3c(c(C(=O)c4ccccc4)oc13)CCC2
GI50 [1]: > 100 µM
GI50 [2]: > 100 µM (inactive)
GI50 [3]: > 100 µM (inactive)
GI50 [4]: > 100 µM (inactive)
GI50 [5]: > 100 µM (inactive)
GI50 [6]: > 100 µM (inactive)
GI50 [7]: > 100 µM (inactive)
GI50 [8]: > 100 µM (inactive)
GI50 [9]: > 100 µM (inactive)
GI50 [10]: > 100 µM (inactive)
GI50 [11]: > 100 µM (inactive)
GI50 [12]: > 100 µM (inactive)
GI50 [13]: > 100 µM (inactive)
GI50 [14]: < 0.01 µM (active)
GI50 [15]: > 100 µM (inactive)
GI50 [16]: > 100 µM (inactive)
GI50 [17]: > 100 µM (inactive)
GI50 [18]: > 100 µM (inactive)
GI50 [19]: 62.5 µM (inactive)
GI50 [20]: > 100 µM (inactive)
GI50 [21]: > 100 µM (inactive)
GI50 [22]: 53.6 µM (inactive)
GI50 [23]: > 100 µM (inactive)
GI50 [24]: > 100 µM (inactive)
GI50 [25]: > 100 µM (inactive)
GI50 [26]: > 100 µM (inactive)
GI50 [27]: > 100 µM (inactive)
GI50 [28]: 69.7 µM (inactive)
GI50 [29]: > 100 µM (inactive)
GI50 [30]: > 100 µM (inactive)
GI50 [31]: > 100 µM (inactive)
GI50 [32]: > 100 µM (inactive)
GI50 [33]: > 100 µM (inactive)
GI50 [34]: > 100 µM (inactive)
GI50 [35]: > 100 µM (inactive)
GI50 [36]: > 100 µM (inactive)
GI50 [37]: > 100 µM (inactive)
GI50 [38]: > 100 µM (inactive)
GI50 [39]: > 100 µM (inactive)
GI50 [40]: > 100 µM (inactive)
GI50 [41]: > 100 µM (inactive)
GI50 [42]: 41.7 µM (inactive)
GI50 [43]: > 100 µM (inactive)
GI50 [44]: > 100 µM (inactive)
GI50 [45]: > 100 µM (inactive)
GI50 [46]: > 100 µM (inactive)
GI50 [47]: > 100 µM (inactive)
GI50 [48]: > 100 µM (inactive)
GI50 [49]: > 100 µM (inactive)

CC(C)=CC(=O)Cc1nc2ccccc2[nH]c1=O
GI50 [1]: > 100 µM
GI50 [2]: > 100 µM (inactive)
GI50 [3]: > 100 µM (inactive)
GI50 [50]: > 100 µM (inactive)
GI50 [4]: > 100 µM (inactive)
GI50 [5]: 82.4 µM (inactive)
GI50 [6]: 37 µM (inactive)
GI50 [7]: > 100 µM (inactive)
GI50 [8]: > 100 µM (inactive)
GI50 [9]: > 100 µM (inactive)
GI50 [10]: > 100 µM (inactive)
GI50 [11]: > 100 µM (inactive)
GI50 [51]: > 100 µM (inactive)
GI50 [13]: 40.3 µM (inactive)
GI50 [14]: 22.4 µM (inactive)
GI50 [15]: > 100 µM (inactive)
GI50 [16]: > 100 µM (inactive)
GI50 [17]: > 100 µM (inactive)
GI50 [18]: 76.7 µM (inactive)
GI50 [52]: > 100 µM (inactive)
GI50 [19]: 18.4 µM (inactive)
GI50 [53]: > 100 µM (inactive)
GI50 [20]: > 100 µM (inactive)
GI50 [21]: > 100 µM (inactive)
GI50 [54]: > 100 µM (inactive)
GI50 [55]: > 100 µM (inactive)
GI50 [56]: > 100 µM (inactive)
GI50 [22]: 49.5 µM (inactive)
GI50 [23]: > 100 µM (inactive)
GI50 [24]: 64.7 µM (inactive)
GI50 [25]: > 100 µM (inactive)
GI50 [26]: > 100 µM (inactive)
GI50 [27]: 76 µM (inactive)
GI50 [28]: > 100 µM (inactive)
GI50 [29]: > 100 µM (inactive)
GI50 [30]: > 100 µM (inactive)
GI50 [31]: 64 µM (inactive)
GI50 [32]: > 100 µM (inactive)
GI50 [33]: 47.3 µM (inactive)
GI50 [34]: > 100 µM (inactive)
GI50 [35]: > 100 µM (inactive)
GI50 [36]: 52.2 µM (inactive)
GI50 [38]: > 100 µM (inactive)
GI50 [39]: > 100 µM (inactive)
GI50 [40]: > 100 µM (inactive)
GI50 [41]: > 100 µM (inactive)
GI50 [42]: > 100 µM (inactive)
GI50 [57]: > 100 µM (inactive)
GI50 [43]: > 100 µM (inactive)
GI50 [44]: > 100 µM (inactive)
GI50 [58]: 68.7 µM (inactive)
GI50 [45]: > 100 µM (inactive)
GI50 [46]: > 100 µM (inactive)
GI50 [48]: > 100 µM (inactive)
GI50 [49]: > 100 µM (inactive)

COC(=O)c1ccccc1NC(=O)C(=O)CC(=O)CC(c1ccccc1)c1c(O)c2ccccc2oc1=O (configuration not stated)
GI50 [2]: > 100 µM (inactive)
GI50 [3]: > 100 µM (inactive)
GI50 [50]: > 100 µM (inactive)
GI50 [5]: > 100 µM (inactive)
GI50 [7]: > 100 µM (inactive)
GI50 [8]: > 100 µM (inactive)
GI50 [9]: > 100 µM (inactive)
GI50 [10]: > 100 µM (inactive)
GI50 [11]: > 100 µM (inactive)
GI50 [51]: > 100 µM (inactive)
GI50 [15]: > 100 µM (inactive)
GI50 [17]: > 100 µM (inactive)
GI50 [18]: > 100 µM (inactive)
GI50 [52]: > 100 µM (inactive)
GI50 [19]: > 100 µM (inactive)
GI50 [53]: > 100 µM (inactive)
GI50 [20]: > 100 µM (inactive)
GI50 [21]: > 100 µM (inactive)
GI50 [55]: > 100 µM (inactive)
GI50 [56]: > 100 µM (inactive)
GI50 [22]: > 100 µM (inactive)
GI50 [23]: > 100 µM (inactive)
GI50 [24]: > 100 µM (inactive)
GI50 [25]: > 100 µM (inactive)
GI50 [26]: > 100 µM (inactive)
GI50 [27]: > 100 µM (inactive)
GI50 [30]: > 100 µM (inactive)
GI50 [31]: > 100 µM (inactive)
GI50 [32]: > 100 µM (inactive)
GI50 [33]: > 100 µM (inactive)
GI50 [34]: > 100 µM (inactive)
GI50 [59]: > 100 µM (inactive)
GI50 [36]: > 100 µM (inactive)
GI50 [37]: > 100 µM (inactive)
GI50 [38]: > 100 µM (inactive)
GI50 [39]: > 100 µM (inactive)
GI50 [40]: > 100 µM (inactive)
GI50 [41]: > 100 µM (inactive)
GI50 [42]: > 10 µM (inactive)
GI50 [57]: > 100 µM (inactive)
GI50 [43]: > 100 µM (inactive)
GI50 [44]: > 100 µM (inactive)
GI50 [58]: > 100 µM (inactive)
GI50 [45]: > 100 µM (inactive)
GI50 [46]: > 100 µM (inactive)
GI50 [47]: > 100 µM (inactive)
GI50 [48]: > 100 µM (inactive)
GI50 [49]: 47.4 µM (inactive)

Source: ChEMBL document CHEMBL1201862, “PubChem BioAssay data set” (2004)
